For assay [1], the system named is diamondback moth (Plutella xylostella) and cabbage cluster caterpillar (Crocidolomia pavonana) known to be resistant to chlorantraniliprole. The assay can be described thus: Example 5 cabbage plot study, yield under chlorantraniliprole-resistant pest infestation. As to conditions: rate 30.9 g/ha; cabbage plots. It is filed as in vivo, Plutella xylostella; Crocidolomia pavonana (on cabbage). As for the experimental part: (§1) A study was conducted to determine the effect that a synergistic weight ratio of Bacillus thuringiensis subsp. kurstaki and Bacillus thuringiensis subsp. aizawai would have on insect species with known resistance to the commonly used insecticide, chlorantraniliprole. Prevathon™ (available from DuPont™) is a 5% suspension concentrate of chlorantraniliprole and was used as the source of chlorantraniliprole in the following two studies. Sympatico™ emulsifiable suspension concentrate (available from Valent BioSciences Corporation) was used as the source of Bacillus thuringiensis subsp. aizawai and Bacillus thuringiensis kurstaki. Sympatico™ contains about a 60:40 weight ratio of Bacillus thuringiensis subsp. kurstaki fermentation solids, spores and toxins to Bacillus thuringiensis subsp. aizawai fermentation solids, spores and toxins. The plots were planted with cabbage and naturally infested with populations of diamondback moth (Plutella xylostella) and cabbage cluster caterpillar (Crocidolomia pavonana) that were known to be resistant to chlorantraniliprole.

For assay [2], the system named is insect species with known resistance to chlorantraniliprole. In words: Example 6 plot study, yield with insect species resistant to chlorantraniliprole. Type of assay: in vivo. As to conditions: rate 30.9 g a.i/ha. As for the experimental part: as §1
Another study was conducted to determine the effect that a synergistic weight ratio of Bacillus thuringiensis subsp. kurstaki and Bacillus thuringiensis subsp. aizawai would have on insect species with known resistance to the commonly used insecticide, chlorantraniliprole.

Molecules are shown by their SMILES.

With `CNC(=O)c1cc(Cl)cc(C)c1NC(=O)c1cc(Br)nn1-c1ncccc1Cl` [Chlorantraniliprole], the Yield in assay [1] is recorded as 67.0 kg/plot; in assay [2], 88.3 kg/plot.

For the origin of these results see patent publication US20190008160A1, “BACILLUS THURINGIENSIS SUBSP. KURSTAKI AND BACILLUS THURINGIENSIS SUBSP. AIZAWAI COMBINATION FORMULATIONS” (Valent BioSciences Corporation, priority 2015, published 2019).
